How the values were obtained:
Assay type in all cases: functional, cell-based
SK-OV-3 = assay: Cytotoxicity against human SKOV3 cells by SRB assay
HCT-15 = assay: Cytotoxicity against human HCT15 cells by SRB assay
SK-MEL-2 = assay: Cytotoxicity against human SK-MEL-2 cells by SRB assay
A549 = assay: Cytotoxicity against human A549 cells by SRB assay

| SMILES | IC50 (SK-OV-3) [µM] | IC50 (HCT-15) [µM] | IC50 (SK-MEL-2) [µM] | IC50 (A549) [µM] |
| --- | --- | --- | --- | --- |
| CN1CCc2cc3c(cc2[C@@H]1Cc1ccc2c(c1C(=O)O)OCO2)OCO3 | > 30 | 27.8 | > 30 | > 30 |
| COc1ccc(C[C@@H]2c3cc(O)c(OC)cc3CCN2C)cc1O [(R)-RETICULINE] | > 30 | 26.8 | > 30 | > 30 |
| COc1ccc(C[C@H]2c3cc(O)c(OC)cc3CCN2C)cc1O [(S)-RETICULINE] | > 30 | 29.4 | > 30 | > 30 |
| COc1ccc2cc3[n+](cc2c1OC)CCc1cc2c(cc1-3)OCO2 [BERBERINE CHLORIDE] | 16.4 | 16.6 | 13.8 | 6.27 |
| COc1cc2c(cc1O)C1Cc3ccc4c(c3CN1CC2)OCO4 (stereo not given) [CHEILANTHIFOLINE] | 27.4 | 29.8 | 22.2 | 20.6 |
| c1c2c(cc3c1OCO3)-c1cc3ccc4c(c3c[n+]1CC2)OCO4 [COPTISINE CHLORIDE] | > 30 | 29.1 | > 30 | 24 |
| COc1cc2c(cc1OC)C1Cc3ccc(O)c(OC)c3CN1CC2 (stereo not given) [CORYDALMINE] | 28.5 | 26.4 | 27.2 | > 30 |
| O=C(O)c1c(C[C@@H]2NCCc3cc4c(cc32)OCO4)ccc2c1OCO2 [CORYTERNATINE A] | > 30 | 23.3 | > 30 | > 30 |
| COc1ccc(C[C@@H]2NCCc3cc4c(cc32)OCO4)c(C(=O)O)c1OC [CORYTERNATINE B] | > 30 | 24.6 | > 30 | > 30 |
| COc1ccc(C[C@H]2NCCc3cc4c(cc32)OCO4)c(C(=O)O)c1OC [CORYTERNATINE C] | > 30 | 27.6 | > 30 | > 30 |
| COc1cc2c(cc1OC)C1Cc3ccc(O)c(O)c3CN1CC2 (stereo not given) [DEMETHYLCORYDALMINE] | 5.14 | 2.86 | 7.87 | 8.34 |
| COc1cccc2c1C(=O)c1c(O)c3c(c(O)c1C2=O)C[C@@](O)(C(=O)CO)C[C@@H]3O[C@H]1C[C@H](N)[C@H](O)[C@H](C)O1 [DOXORUBICIN] | 0.003 | 0.038 | 0.012 | – |
| COc1ccc2c(c1OC)CN1CCc3cc4c(cc3C1C2)OCO4 (stereo not given) [TETRAHYDROBERBERINE] | > 30 | > 30 | 27.9 | > 30 |
| COc1c(O)ccc2cc3[n+](cc12)CCc1cc2c(cc1-3)OCO2 [THALIFENDINE] | > 30 | > 30 | 25.7 | 28.3 |
